Each block holds one compound with its values, some of them ahead of it. Calls of active or inactive are those of the source. Unless noted, the calls are words filed in the database; no cut-off is given here.
Columns and labels:
Beta-galactosidase = Beta-galactosidase (Escherichia coli, UniProt Q8VNN2); assay: PubChem AID 485352; assay type: functional
[1] = target: Type-1 angiotensin II receptor (Homo sapiens, UniProt P30556); assay: AT1 receptor antagonists, dose response, selectivity assay for APJ receptor antagonist project, cell-based, uHTS hits (AID 463214); assay type: functional;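 further: antagonist potency against angiotensin II stimulated AT1 response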
[2] = target: Potassium voltage-gated channel subfamily KQT member 2 (Rattus norvegicus, UniProt O88943); assay: Mode of action assay-Dose response assay for compounds that activate KCNQ2 potassium channels on automated patch clamp. [Related pubchem assays (depositor defined):AID2239, AID2258, AID2287, AID493113]; assay type: functional
[3] = target: T1, Potassium voltage-gated channel subfamily KQT member 4 (Homo sapiens, UniProt P56696); assay: human KCNQ4 channel current potentiation, dose response, selectivity assay for KCNQ2 activator project, automated patch clamp, CHO cells (AID 493043); assay type: functional, cell-based
[4] = target: Potassium voltage-gated channel subfamily KQT member 2/member 3 (Rattus norvegicus, UniProt O88943+O88944); assay: Mode of action assay-Dose response assay for KCNQ2 activators in the KCNQ2/KCNQ3 co-expressing cells on automated patch clamp. [Related pubchem assays (depositor defined):AID2239, AID2258, AID2287]; assay type: functional
[5] = target: T1, Potassium voltage-gated channel subfamily KQT member 4; assay: KCNQ4 channel modulation, potentiation or inhibition, dose response, selectivity assay for KCNQ2 activator project, thallium flux, KCNQ4-expressing cells (AID 504416); assay type: functional, cell-based
[6] = target: Dual specificity protein kinase CLK1 (Homo sapiens, UniProt P49759); assay: CLK1 kinase inhibitors, off-target check, dose response, selectivity assay for Dyrk1A inhibitor project, biochemical, cherry-picked samples (AID 588811)
[7] = target: Acyl-homoserine lactone acylase PvdQ (Pseudomonas aeruginosa (strain LESB58), UniProt Q9I194); assay: P. aeruginosa PvdQ acylase inhibitors, dose response, biochemical, fluorescence, plate reader and imaging, cherry-picks (AID 493231)
HeLa = assay: HeLa cell cytotoxicity, dose response, cytotoxicity control, 48 h, plate reader, cherry-picks (AID 504942); assay type: functional, cell-based; conditions: Homo sapiens

T1 sequence (P56696 whole entry): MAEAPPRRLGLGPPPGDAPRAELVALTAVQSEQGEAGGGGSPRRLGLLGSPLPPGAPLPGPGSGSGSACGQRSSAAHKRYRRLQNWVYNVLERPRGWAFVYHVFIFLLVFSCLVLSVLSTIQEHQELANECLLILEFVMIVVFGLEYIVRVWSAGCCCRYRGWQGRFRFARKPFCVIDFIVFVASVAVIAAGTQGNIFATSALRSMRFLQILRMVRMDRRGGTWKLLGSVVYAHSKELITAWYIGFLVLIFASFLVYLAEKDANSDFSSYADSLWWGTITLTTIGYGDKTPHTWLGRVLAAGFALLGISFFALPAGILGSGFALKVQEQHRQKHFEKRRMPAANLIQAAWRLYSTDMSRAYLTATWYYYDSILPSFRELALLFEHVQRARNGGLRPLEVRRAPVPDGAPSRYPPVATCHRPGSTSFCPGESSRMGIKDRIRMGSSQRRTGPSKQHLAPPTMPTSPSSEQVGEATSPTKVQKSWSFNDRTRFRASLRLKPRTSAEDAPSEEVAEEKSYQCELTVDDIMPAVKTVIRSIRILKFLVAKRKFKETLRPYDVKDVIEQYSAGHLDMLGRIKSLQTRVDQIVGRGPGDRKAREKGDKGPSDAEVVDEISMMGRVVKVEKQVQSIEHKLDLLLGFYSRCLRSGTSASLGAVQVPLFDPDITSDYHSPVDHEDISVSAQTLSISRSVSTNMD
Potassium voltage-gated channel subfamily KQT member 2/member 3, sequence (O88943 whole entry): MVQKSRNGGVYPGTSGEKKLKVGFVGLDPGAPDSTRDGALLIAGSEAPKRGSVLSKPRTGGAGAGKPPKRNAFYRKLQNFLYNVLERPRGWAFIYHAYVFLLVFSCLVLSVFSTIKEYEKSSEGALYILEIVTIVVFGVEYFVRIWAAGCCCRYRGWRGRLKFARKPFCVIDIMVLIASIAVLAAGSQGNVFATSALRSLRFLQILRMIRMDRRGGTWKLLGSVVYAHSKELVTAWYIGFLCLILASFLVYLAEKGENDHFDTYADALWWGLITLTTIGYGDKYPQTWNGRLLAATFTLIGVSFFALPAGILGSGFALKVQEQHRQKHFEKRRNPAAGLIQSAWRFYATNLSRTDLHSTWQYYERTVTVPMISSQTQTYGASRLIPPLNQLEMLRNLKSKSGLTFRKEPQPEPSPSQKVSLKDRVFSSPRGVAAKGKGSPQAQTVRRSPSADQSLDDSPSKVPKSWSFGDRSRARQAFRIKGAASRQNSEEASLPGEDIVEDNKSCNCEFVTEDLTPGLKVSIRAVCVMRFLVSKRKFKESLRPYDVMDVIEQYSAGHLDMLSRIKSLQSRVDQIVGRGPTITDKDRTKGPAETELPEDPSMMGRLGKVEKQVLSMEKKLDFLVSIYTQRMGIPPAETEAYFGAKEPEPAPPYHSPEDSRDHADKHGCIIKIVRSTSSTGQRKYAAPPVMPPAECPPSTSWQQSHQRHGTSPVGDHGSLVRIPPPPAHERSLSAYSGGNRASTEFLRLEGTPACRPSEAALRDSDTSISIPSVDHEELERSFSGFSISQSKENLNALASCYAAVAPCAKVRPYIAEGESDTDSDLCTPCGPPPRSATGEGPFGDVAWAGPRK
Potassium voltage-gated channel subfamily KQT member 2/member 3, sequence (O88944 whole entry): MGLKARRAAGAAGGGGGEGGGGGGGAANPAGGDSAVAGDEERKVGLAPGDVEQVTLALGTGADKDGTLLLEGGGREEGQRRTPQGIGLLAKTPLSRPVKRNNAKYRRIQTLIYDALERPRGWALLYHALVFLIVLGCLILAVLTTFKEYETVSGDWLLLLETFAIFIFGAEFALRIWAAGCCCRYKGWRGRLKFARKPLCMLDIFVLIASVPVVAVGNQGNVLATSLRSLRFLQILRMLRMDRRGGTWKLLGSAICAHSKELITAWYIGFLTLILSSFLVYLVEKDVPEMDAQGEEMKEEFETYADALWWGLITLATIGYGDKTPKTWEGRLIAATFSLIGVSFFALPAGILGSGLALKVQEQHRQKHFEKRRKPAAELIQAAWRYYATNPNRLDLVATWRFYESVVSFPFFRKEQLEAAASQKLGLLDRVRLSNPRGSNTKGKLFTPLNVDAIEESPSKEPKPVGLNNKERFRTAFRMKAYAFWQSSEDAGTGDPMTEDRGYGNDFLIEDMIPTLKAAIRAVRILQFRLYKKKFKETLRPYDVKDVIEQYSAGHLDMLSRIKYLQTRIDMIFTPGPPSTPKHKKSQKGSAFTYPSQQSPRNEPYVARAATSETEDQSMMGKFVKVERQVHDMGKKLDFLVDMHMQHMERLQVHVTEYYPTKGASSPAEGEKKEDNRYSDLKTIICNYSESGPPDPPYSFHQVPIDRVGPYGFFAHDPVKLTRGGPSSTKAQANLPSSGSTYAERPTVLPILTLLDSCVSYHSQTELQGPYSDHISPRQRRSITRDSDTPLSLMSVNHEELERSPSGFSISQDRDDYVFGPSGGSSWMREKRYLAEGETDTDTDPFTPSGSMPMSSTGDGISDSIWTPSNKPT
Potassium voltage-gated channel subfamily KQT member 2, sequence (O88943 whole entry): as the sequence (O88943 whole entry) above
Beta-galactosidase, sequence (Q8VNN2 whole entry): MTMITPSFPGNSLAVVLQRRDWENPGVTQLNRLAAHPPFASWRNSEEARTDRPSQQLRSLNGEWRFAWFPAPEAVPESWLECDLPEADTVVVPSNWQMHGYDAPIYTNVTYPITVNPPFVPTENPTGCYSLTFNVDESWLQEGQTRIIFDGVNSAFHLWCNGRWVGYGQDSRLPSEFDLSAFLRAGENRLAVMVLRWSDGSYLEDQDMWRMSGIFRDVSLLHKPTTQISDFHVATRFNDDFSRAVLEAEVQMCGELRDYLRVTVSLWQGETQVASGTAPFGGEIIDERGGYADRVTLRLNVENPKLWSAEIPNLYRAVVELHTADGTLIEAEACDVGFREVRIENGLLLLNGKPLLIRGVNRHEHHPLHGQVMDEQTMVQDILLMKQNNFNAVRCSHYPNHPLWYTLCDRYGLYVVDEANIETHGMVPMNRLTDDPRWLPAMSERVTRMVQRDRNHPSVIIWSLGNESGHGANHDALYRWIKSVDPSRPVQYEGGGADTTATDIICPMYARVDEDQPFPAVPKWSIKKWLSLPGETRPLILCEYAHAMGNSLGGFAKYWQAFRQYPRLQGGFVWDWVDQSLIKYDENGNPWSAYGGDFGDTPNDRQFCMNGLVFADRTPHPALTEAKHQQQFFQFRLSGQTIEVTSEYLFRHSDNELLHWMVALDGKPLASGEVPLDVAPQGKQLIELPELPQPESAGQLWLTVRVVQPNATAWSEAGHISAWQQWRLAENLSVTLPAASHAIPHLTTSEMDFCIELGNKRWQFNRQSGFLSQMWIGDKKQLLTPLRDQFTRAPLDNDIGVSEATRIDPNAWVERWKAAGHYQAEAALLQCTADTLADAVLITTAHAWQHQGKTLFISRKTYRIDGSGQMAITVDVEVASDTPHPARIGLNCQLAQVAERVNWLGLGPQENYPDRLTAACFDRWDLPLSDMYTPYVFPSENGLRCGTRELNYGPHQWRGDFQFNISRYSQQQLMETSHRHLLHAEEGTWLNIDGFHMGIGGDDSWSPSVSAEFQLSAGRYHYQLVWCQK
Acyl-homoserine lactone acylase PvdQ, sequence (Q9I194 24-193 limits assumed): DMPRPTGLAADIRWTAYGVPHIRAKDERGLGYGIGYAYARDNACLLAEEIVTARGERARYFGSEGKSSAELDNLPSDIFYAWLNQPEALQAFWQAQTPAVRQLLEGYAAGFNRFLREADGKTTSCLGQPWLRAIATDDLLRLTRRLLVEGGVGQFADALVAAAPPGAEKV
Acyl-homoserine lactone acylase PvdQ, sequence (Q9I194 217-762 limits assumed): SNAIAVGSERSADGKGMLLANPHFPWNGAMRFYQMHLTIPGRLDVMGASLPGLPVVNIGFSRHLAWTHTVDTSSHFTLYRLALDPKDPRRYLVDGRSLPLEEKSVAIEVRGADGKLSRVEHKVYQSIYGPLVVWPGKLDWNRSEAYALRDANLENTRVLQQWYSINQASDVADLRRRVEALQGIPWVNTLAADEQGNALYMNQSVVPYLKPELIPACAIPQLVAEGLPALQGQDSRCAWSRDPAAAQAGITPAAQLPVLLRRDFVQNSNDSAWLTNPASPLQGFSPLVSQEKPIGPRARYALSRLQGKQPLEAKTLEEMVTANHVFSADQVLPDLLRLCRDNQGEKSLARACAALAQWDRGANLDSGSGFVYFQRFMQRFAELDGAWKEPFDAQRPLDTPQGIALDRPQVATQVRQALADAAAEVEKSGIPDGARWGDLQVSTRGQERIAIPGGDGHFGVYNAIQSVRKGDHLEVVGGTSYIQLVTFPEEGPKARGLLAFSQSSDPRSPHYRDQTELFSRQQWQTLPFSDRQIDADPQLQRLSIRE
Type-1 angiotensin II receptor, sequence (P30556 whole entry): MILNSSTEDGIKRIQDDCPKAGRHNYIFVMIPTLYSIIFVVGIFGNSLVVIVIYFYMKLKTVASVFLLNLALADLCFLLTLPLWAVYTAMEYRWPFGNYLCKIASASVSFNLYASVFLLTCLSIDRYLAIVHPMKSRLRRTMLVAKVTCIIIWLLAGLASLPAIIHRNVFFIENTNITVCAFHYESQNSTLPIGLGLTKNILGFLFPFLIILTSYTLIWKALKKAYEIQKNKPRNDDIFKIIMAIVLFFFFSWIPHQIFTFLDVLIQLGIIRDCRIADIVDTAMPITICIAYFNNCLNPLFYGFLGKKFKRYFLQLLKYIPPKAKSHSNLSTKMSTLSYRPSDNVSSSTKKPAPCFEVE

- EC50 (Beta-galactosidase): > 40 µM (inactive)
- IC50 [1]: > 40 µM (not active)
SMILES: CC(=O)Oc1ccc(/C=C2/SC(=S)N(Cc3ccccc3)C2=O)cc1

- EC50 [2]: 2.14 µM (active)
- EC50 [3]: 3.15 µM (active)
- EC50 [4]: 2.69 µM (active)
- EC50 [5]: 18.7 µM (active)
SMILES: CCCCC(=O)Nc1c(C)cc(C)cc1Cl

- AC50 [6]: 1.84 µM (active)
SMILES: CN(C)S(=O)(=O)c1ccc(Cl)c(C(=O)Nc2cccc3ncccc23)c1

SMILES: O=C(Nc1ncc([N+](=O)[O-])s1)c1cccc([N+](=O)[O-])c1
- AC50 [7]: 10.3 µM (active)
- AC50 (HeLa): 23.1 µM (active)

— ChEMBL document CHEMBL1201862, “PubChem BioAssay data set” (2004)
